Data taken from patent publication US20090143279A1 (priority 2007, published 2009).
Read-outs that look alike come from different tables or passages of the source.

How the values were obtained:
reactive oxygen species = format: cell-based, mouse
[1] = test system: mitochondrial membrane potential; format: cell-based, mouse
nuOXPHOS transcripts = format: cell-based, mouse
mtOXPHOS transcripts = format: cell-based, mouse
cytochrome c = format: cell-based, mouse
OXPHOS gene expression = format: cell-based, mouse
[2] = test system: cellular dehydrogenase activity
[3] = normalized composite Z-score vs mock-treated (DMSO) wells, Conc 20 μM
[4] = composite Z-score vs DMSO wells, Conc 20 μM
[5] = composite Z-score vs DMSO, Conc 20 μM
[6] = 20 μM, composite Z-score vs DMSO
[7] = Conc 13.32 μM, normalized score vs mock-treated (DMSO) wells

C=C/C(C)=C\CC1C(C)(O)CCC2C(C)(C)CCCC21C (centres unmarked) [abienol] showed a Viability (C2C12 myotubes; [3]) of −0.199, an ROS (reactive oxygen species; [3]) of 2.467 and a ΔΨm [1, 3] of 0.334. For the same compound, the nucOX (nuOXPHOS transcripts; [3]) was 0.091, the mitoOX (mtOXPHOS transcripts; [3]) was 1.214 and the cyt c (cytochrome c; [3]) was 0.211. The GE-HTS (OXPHOS gene expression; [3]) was 0.498 and the MTT [2, 3] was 0.338.

In the case of CN[C@@H](Cc1c[nH]c2ccccc12)C(=O)O [abrine], the “Viability (composite Z-score)” value (C2C12 myotubes) is reported as 0.206, the “ROS (composite Z-score)” value (reactive oxygen species) is reported as 1.698 and the “ΔΨm (composite Z-score)” value [1] is reported as −0.332. The “nucOX (composite Z-score)” value (nuOXPHOS transcripts) was 0.430, the “mitoOX (composite Z-score)” value (mtOXPHOS transcripts) was 0.383 and the “cyt c (composite Z-score)” value (cytochrome c) was −0.094. For the same compound, the “GE-HTS (composite Z-score)” value (OXPHOS gene expression) was 0.459 and the “MTT (composite Z-score)” value [2] was −1.203.

CC1=CC(=O)CC(C)(C)[C@@]1(O)/C=C/C(C)=C\C(=O)O [abscisic acid] was tested, and the Viability (C2C12 myotubes; [3]) was 0.309, the ROS (reactive oxygen species; [3]) was −0.476 and the ΔΨm [1, 3] was −0.565. It also gave a nucOX (nuOXPHOS transcripts; [3]) of 0.509, a mitoOX (mtOXPHOS transcripts; [3]) of 0.299 and a cyt c (cytochrome c; [3]) of 0.179. The GE-HTS (OXPHOS gene expression; [3]) was 0.469 and the MTT [2, 3] was −1.053.

Compound CCCC(=O)Nc1ccc(OCC(O)CNC(C)C)c(C(C)=O)c1 (centres unmarked) [acebutolol] has a Viability (C2C12 myotubes; [4]) of −0.271, an ROS (reactive oxygen species; [4]) of 1.061 and a ΔΨm [1, 4] of 0.016. It also gave a nucOX (nuOXPHOS transcripts; [4]) of −0.591, a mitoOX (mtOXPHOS transcripts; [4]) of −0.254 and a cyt c (cytochrome c) of −0.884. The cyt c (cytochrome c; [4]) was 0.214, the GE-HTS (OXPHOS gene expression; [4]) was −0.511 and the MTT [2, 4] was −0.548.

In the case of CC(=O)Nc1ccc(OC(=O)c2ccccc2O)cc1 [acetaminosalol], the Viability (C2C12 myotubes; [4]) is reported as 0.144, the ROS (reactive oxygen species; [4]) is reported as 0.308 and the ΔΨm [1, 4] is reported as −0.707. For the same compound, the nucOX (nuOXPHOS transcripts; [4]) was 0.145, the mitoOX (mtOXPHOS transcripts; [4]) was −0.060 and the cyt c (cytochrome c; [4]) was 0.465. The GE-HTS (OXPHOS gene expression; [4]) was 0.083 and the MTT [2, 4] was −0.142.

COc1cc(C(C)=O)cc(OC)c1O [acetosyringone] gave a Viability (C2C12 myotubes; [5]) of −0.432, an ROS (reactive oxygen species; [5]) of 0.269 and a ΔΨm [1, 5] of −0.370. It also gave a nucOX (nuOXPHOS transcripts; [5]) of −0.040, a mitoOX (mtOXPHOS transcripts; [5]) of 0.201 and a cyt c (cytochrome c; [5]) of 0.310. For the same compound, the GE-HTS (OXPHOS gene expression; [5]) was 0.029 and the MTT [2, 5] was −1.266.

With CC(=O)Nc1c(I)cc(I)c(C(=O)O)c1I [acetriazoic acid] the Viability (C2C12 myotubes; [5]) was 0.205, the ROS (reactive oxygen species; [5]) was 1.158 and the ΔΨm [1, 5] was −0.059. It also gave a nucOX (nuOXPHOS transcripts; [5]) of −0.870, a mitoOX (mtOXPHOS transcripts; [5]) of −0.320 and a cyt c (cytochrome c; [5]) of −1.416. For the same compound, the GE-HTS (OXPHOS gene expression; [5]) was −0.710 and the MTT [2, 5] was −0.938.

For CC(=O)N[C@@H](CC(C)C)C(=O)O [acetyl-L-leucine], the Viability (C2C12 myotubes; [4]) was −0.465, the ROS (reactive oxygen species; [4]) was 1.139 and the ΔΨm [1, 4] was −0.575. It also gave a nucOX (nuOXPHOS transcripts; [4]) of 0.438, a mitoOX (mtOXPHOS transcripts; [4]) of 0.088 and a cyt c (cytochrome c; [4]) of 0.267. It also gave a GE-HTS (OXPHOS gene expression; [4]) of 0.328 and an MTT [2, 4] of −0.804.

For CC(=O)O[C@H](CC(=O)[O-])C[N+](C)(C)C [acetylcarnitine], the Viability (C2C12 myotubes; [4]) was −0.980, the ROS (reactive oxygen species; [4]) was 0.476 and the ΔΨm [1, 4] was −0.930. It also gave a nucOX (nuOXPHOS transcripts; [4]) of −1.015, a mitoOX (mtOXPHOS transcripts; [4]) of −0.943 and a cyt c (cytochrome c; [4]) of −0.192. It also gave a GE-HTS (OXPHOS gene expression; [4]) of −1.051 and an MTT [2, 4] of −1.275.

For CC(=O)OCC[N+](C)(C)C [acetylcholine], the Viability (C2C12 myotubes; [6]) was −0.299, the ROS (reactive oxygen species; [6]) was 0.622 and the ΔΨm [1, 6] was −0.520. It also gave a nucOX (nuOXPHOS transcripts; [6]) of 0.533, a mitoOX (mtOXPHOS transcripts; [6]) of 0.014 and a cyt c (cytochrome c; [6]) of −0.038. It also gave a GE-HTS (OXPHOS gene expression; [6]) of 0.358 and an MTT [2, 6] of −0.712.

CC(=O)Oc1ccccc1C(=O)Oc1ccccc1C(=O)O [acetylsalicylsalicylic acid] was tested, and the “Viability (composite Z-score)” value (C2C12 myotubes; [7]) was −0.840, the “ROS (composite Z-score)” value (reactive oxygen species; [7]) was 0.399 and the “ΔΨm (composite Z-score)” value [1, 7] was −0.808. For the same compound, the “nucOX (composite Z-score)” value (nuOXPHOS transcripts; [7]) was −0.249, the “mitoOX (composite Z-score)” value (mtOXPHOS transcripts; [7]) was −0.389 and the “cyt c (composite Z-score)” value (cytochrome c; [7]) was −0.200. For the same compound, the “GE-HTS (composite Z-score)” value (OXPHOS gene expression; [7]) was −0.301 and the “MTT (composite Z-score)” value [2, 7] was −1.621.

Compound CCN1C[C@]2(COC)[C@H](O)C[C@H](OC)[C@@]34[C@@H]5C[C@@]6(O)[C@H](OC(=O)c7ccccc7)[C@@H]5[C@@](OC(C)=O)([C@@H]([C@H](OC)[C@H]23)[C@@H]14)[C@@H](O)[C@@H]6OC [aconitine] has a Viability (C2C12 myotubes; [5]) of 0.132, an ROS (reactive oxygen species; [5]) of 1.038 and a ΔΨm [1, 5] of −0.073. It also gave a nucOX (nuOXPHOS transcripts; [5]) of 0.356, a mitoOX (mtOXPHOS transcripts; [5]) of −0.198 and a cyt c (cytochrome c; [5]) of 0.751. The cyt c (cytochrome c; composite Z-score vs mock-treated (DMSO) wells, concentration of each compound in μM) was 1.609, the GE-HTS (OXPHOS gene expression; [5]) was 0.169 and the MTT [2, 5] was −0.584.
